Values joined by “and” are separate entries in the source; they are usually repeats but may differ in a detail not shown here. Equal entries are not always repeated. One block for each compound: values may come before it.
Assays:
[1] = system: Bone marrow MSCs (BM-MSC); test: Cytotoxicity, range over bone marrow MSCs; assay type: cell-based; settings: BM-MSC and immortalized BM-MSC
Experimental: (§1) OVCAR-3 (OVC-3) and OVCAR-8 (OVC-8) ovarian serous adenocarcinomas, IGROV-1 ovarian endometrioid adenocarcinoma, OVCAR-5 (OVC-5) upper gastrointestinal carcinoma, MDA-MB-231 breast adenocarcinoma, and MCF-7 and T-47D invasive breast carcinomas were purchased from the Developmental Therapeutic Program of the National Cancer Institute (NIH, USA) and were cultured in an RPMI medium (Thermo Fisher). Mes-Sa and Mes-Sa/Dx5 uterine sarcoma cell lines were purchased from American Type Culture Collection (ATCC) and were kept in DMEM (Thermo Fisher). Mes-Sa B1 was transfected with the human MDR1 gene, and Mes-Sa mCherry, Mes-Sa B1 mOrange, and Mes-Sa/Dx5 eGFP were engineered to stably express the respective fluorescent proteins previously.[51] Culture media for cancer cells were supplemented with 10% fetal bovine serum, 2 mM L-glutamine, and 100 units/mL penicillin and 100 μg/mL streptomycin (Thermo Fisher). The adipose tissue and bone marrow-derived mesenchymal stem cells (AD-MSC and BM-MSC) were described previously[37] and were kept in DMEM-F12 (Gibco) supplemented with 10% fetal bovine serum, L-glutamine (Thermo Fisher), 0.1% gentamicin (Gibco, 50 mg/mL), and 16 ng/mL fibroblast growth factor 2 (Peprotech). Cells were kept at 37 °C under 5% CO2 and were negative for mycoplasma infection.
(§2) Cytotoxicities of the nonfluorescent cancer cells were assessed with a PrestoBlue cell viability reagent (Thermo Fisher). Briefly, 2500 cells/well were seeded on 384-well plates; then, the next-day drugs were added. After 72 h of incubation, PrestoBlue was added in a 10% final concentration, and after an hour of additional incubation, plates were measured with a PerkinElmer EnSpire plate reader at 555 nm/585 nm excitation/emission wavelengths. Stem cells were seeded on 96-well plates at a density of 5000 cells/well, and the following day, drugs were added for 96 h of incubation; then, viability was assessed with 10% PrestoBlue diluted in PBS. Fluorescent cancer cells were admixed before seeding on 384-well plates at an 800 cells/well density each, thus altogether 2400 cells/well. Drugs were added the following day, and the intensity of the fluorescent proteins was measured after 144 h of incubation at the respective fluorescent channels (excitation/emission, eGFP: 485 nm/510 nm; mCherry: 585 nm/610 nm; mOrange: 545 nm/567 nm). pIC50 values were calculated by a custom program written by Judit Sessler in C#. IC50 values and standard deviation were calculated from average pIC50 values from at least 3 independent measurements.

AD-MSC = test: Cytotoxicity (PrestoBlue), adipose-derived mesenchymal stem cells; assay type: cell-based; settings: 96 h incubation
Experimental: as §1, §2

IGROV-1 = test: Cytotoxicity (PrestoBlue), ovarian cancer line; assay type: cell-based; settings: IGROV-1, 72 h incubation
Experimental: as §1, §2

OVC-8 = test: Cytotoxicity (PrestoBlue), ovarian cancer line; assay type: cell-based; settings: OVC-8, 72 h incubation
Experimental: as §1, §2

OVC-3 = test: Cytotoxicity (PrestoBlue), ovarian cancer line; assay type: cell-based; settings: OVC-3, 72 h incubation
Experimental: as §1, §2

Mes-Sa [2] = test: H2DCFDA intracellular ROS production assay; assay type: cell-based; settings: 50 μM, 4 h incubation, vs medium
Experimental: (§3) To assess intracellular ROS production, we used a H2DCFDA cellular ROS assay kit (ab113851, Abcam) according to the manufacturer’s instructions. Briefly, 20,000 cells were seeded on 96-well plates. On the following day, cells were washed, and H2DCFDA solution, prepared by avoiding direct light, was added for 45 min. Next, cells were washed, and 50 μM samples of test compounds were aspirated on the cells in a complete and phenol red-free medium (FluoroBrite, Thermo Fisher). At each hour, fluorescence of 2′,7′-dichlorofluorescein (DCF) was measured at 484 nm/535 nm excitation/emission wavelengths. Values were normalized to 0 h measurements. Values indicate at least 3 independent measurements.

MCF-7 [3] = test: H2DCFDA intracellular ROS production assay; assay type: cell-based; settings: MCF-7, 50 μM, 4 h incubation, vs medium
Experimental: as §3

T-47D [4] = test: H2DCFDA intracellular ROS production assay; assay type: cell-based; settings: 50 μM, 4 h incubation, vs medium
Experimental: as §3

im. BM-MSC = test: Cytotoxicity (PrestoBlue), immortalized bone marrow MSC; assay type: cell-based; settings: 96 h incubation
Experimental: as §1, §2

Mes-Sa [5] = test: Cytotoxicity, uterine sarcoma parental line; assay type: cell-based; settings: fluorescent protein intensity after 144 h
Experimental: as §1, §2

MCF-7 [6] = test: Cytotoxicity (PrestoBlue), breast cancer line; assay type: cell-based; settings: MCF-7, 72 h incubation
Experimental: as §1, §2

T-47D [7] = test: Cytotoxicity (PrestoBlue), breast cancer line; assay type: cell-based; settings: 72 h incubation
Experimental: as §1, §2

MDA-MB-231 = test: Cytotoxicity (PrestoBlue), breast cancer line; assay type: cell-based; settings: MDA-MB-231, 72 h incubation
Experimental: as §1, §2

Mes-Sa B1 = test: Cytotoxicity, MDR1-transfected uterine sarcoma line; assay type: cell-based; settings: Mes-Sa B1 (MDR1 transfected, ABCB1 expressing), fluorescent protein intensity after 144 h
Experimental: as §1, §2

OVC-5 = test: Cytotoxicity (PrestoBlue), upper gastrointestinal cancer line; assay type: cell-based; settings: OVC-5, 72 h incubation, PrestoBlue
Experimental: as §1, §2

Mes-Sa/Dx5 = test: Cytotoxicity, doxorubicin-selected MDR uterine sarcoma line; assay type: cell-based; settings: Mes-Sa/Dx5 (doxorubicin selected, ABCB1 expressing), fluorescent protein intensity after 144 h
Experimental: as §1, §2

[8] = Stability in serum-free culture medium by HPLC-UV; assay type: physicochemical; settings: for AUC (HPLC-UV), single measurements 1-5 / AUC (HPLC-UV), average: serum-free culture medium
Experimental: Stability of the metal complexes in solution was measured in serum-free culture medium. The compounds were dissolved in DMSO right before the experiment. Solutions of Cu-LA and Ag-LA contained 1% final volume of DMSO, while Au-LA contained 30% DMSO. Samples were taken right after dilution, and after 1 h, 2 h, 4 h, 8 h, 16 h, 32 and 48 h, and measured by HPLC-UV.

BM-MSC = test: Cytotoxicity (PrestoBlue), bone marrow-derived mesenchymal stem cells; assay type: cell-based; settings: 96 h incubation
Experimental: as §1, §2

cancer lines = test: Cytotoxicity, range over cancer lines; assay type: cell-based; settings: read-out: IC50 range over non-MDR cancer cells
Experimental: as §1
(§4) Cytotoxicities of the nonfluorescent cancer cells were assessed with a PrestoBlue cell viability reagent (Thermo Fisher). Briefly, 2500 cells/well were seeded on 384-well plates; then, the next-day drugs were added. After 72 h of incubation, PrestoBlue was added in a 10% final concentration, and after an hour of additional incubation, plates were measured with a PerkinElmer EnSpire plate reader at 555 nm/585 nm excitation/emission wavelengths. Stem cells were seeded on 96-well plates at a density of 5000 cells/well, and the following day, drugs were added for 96 h of incubation; then, viability was assessed with 10% PrestoBlue diluted in PBS. […] IC50 values and standard deviation were calculated from average pIC50 values from at least 3 independent measurements.

MSCs = test: Cytotoxicity, range over MSCs; assay type: cell-based; settings: BMMSC; AD-MSC, BM-MSC, immortalized BM-MSC
Experimental: as §1, §4

HL-60 leukemia line = system: HL-60 leukemia line; design: method as in PMID 34808062; settings: cited from earlier work
[9] = Homo sapiens, MES-SA/Dx5, 144 h

AUC (HPLC-UV), single measurements 1-5 ([8]; 0 h): 1030 and 1011 and 1021 and 1023 and 1047
AUC (HPLC-UV), average ([8]; 0 h, Cu-LA, Ag-LA 1% DMSO, Au-LA 30% DMSO): 1026
AUC (HPLC-UV), average ([8]; 1 h): 1019
AUC (HPLC-UV), single measurements 1-5 ([8]; 1 h): 1022 and 1016 and 1021 and 1017
AUC (HPLC-UV), average ([8]; 2 h): 1022
AUC (HPLC-UV), single measurements 1-5 ([8]; 2 h): 1021 and 1020 and 1022 and 1023
AUC (HPLC-UV), average ([8]; 4 h): 1042
AUC (HPLC-UV), single measurements 1-5 ([8]; 4 h): 1040 and 1041 and 1043 and 1044
AUC (HPLC-UV), average ([8]; 8 h): 1044
AUC (HPLC-UV), single measurements 1-5 ([8]; 8 h): 1045 and 1042 and 1044 and 1046
AUC (HPLC-UV), average ([8]; 16 h): 1042
AUC (HPLC-UV), single measurements 1-5 ([8]; 16 h): 1039 and 1042 and 1046
AUC (HPLC-UV), average ([8]; 32 h): 1038
AUC (HPLC-UV), single measurements 1-5 ([8]; 32 h): 1030 and 1041 and 1038 and 1042 and 1039
AUC (HPLC-UV), average ([8]; 48 h): 1039
AUC (HPLC-UV), single measurements 1-5 ([8]; 48 h): 1038 and 1039 and 1040
Stability in serum-free culture medium ([8]; HPLC-UV, observed 48 h): stable
SMILES: Cc1c(C)n(Cc2ccccc2)[c](=[Cu][Cl])n1Cc1ccccc1 [Cu-LA, Chloro-(1,3-dibenzyl-4,5-dimethyl-imidazol-2-ylidene)copper]
IC50 [1]: 48 to 98 µM
IC50 (AD-MSC): 23.7 µM
IC50 (IGROV-1): 72.9 µM
IC50 (OVC-8): 67.6 µM
IC50 (OVC-3): 58.5 µM
Higher intracellular ROS formation (Mes-Sa [2]): 2–3 fold
Higher intracellular ROS formation (MCF-7 [3]): 2–3 fold
Higher intracellular ROS formation (T-47D [4]): 2–3 fold
IC50 (im. BM-MSC): 75.4 µM
IC50 (Mes-Sa [5]): 18.5 µM
IC50 (MCF-7 [6]): 41.3 µM
IC50 (T-47D [7]): 24.8 µM
IC50 (MDA-MB-231): 62.5 µM
IC50 (Mes-Sa B1): > 100 µM
IC50 (OVC-5): 104 µM
IC50 (Mes-Sa/Dx5): 76.6 µM
IC50 (BM-MSC): 98.3 µM

SMILES: COc1cccc2c1C(=O)c1c(O)c3c(c(O)c1C2=O)C[C@@](O)(C(=O)CO)C[C@@H]3O[C@H]1C[C@H](N)[C@H](O)[C@H](C)O1 [Doxorubicin, doxorubicin, reference compound]
IC50 (AD-MSC; Mesenchymal stem cells, 96 h): 0.13 µM
IC50 (OVC-8): 0.19 µM
IC50 (im. BM-MSC; BMMSC): 0.067 µM
IC50 (cancer lines): 0.034 to 0.22 µM
IC50 (Mes-Sa [5]; Homo sapiens): 0.038 µM
IC50 (MDA-MB-231; Homo sapiens): 0.22 µM
IC50 (Mes-Sa/Dx5; [9]): 2.41 µM
IC50 (MSCs): 0.067 to 0.13 µM
IC50 (BM-MSC; BMMSC): 0.1 µM

SMILES: COc1cc([C@@H]2c3cc4c(cc3[C@@H](O[C@@H]3O[C@@H]5CO[C@@H](C)O[C@H]5[C@H](O)[C@H]3O)[C@H]3COC(=O)[C@H]23)OCO4)cc(OC)c1O [Etoposide, etoposide, reference compound]
IC50 (Mes-Sa [5]; Homo sapiens): 0.26 µM
IC50 (Mes-Sa B1; Homo sapiens): 1.17 µM
IC50 (Mes-Sa/Dx5; [9]): 1.7 µM

SMILES: COc1cccc(C[n+]2c(C)c(C)n(Cc3ccccc3)c2C)c1 [lepidiline D]
IC50 (HL-60 leukemia line): 1.1 µM
